According to article PMC8389655, “Au2phen and Auoxo6, Two Dinuclear Oxo-Bridged Gold(III) Compounds, Induce Apoptotic Signaling in Human Ovarian A2780 Cancer Cells” (Biomedicines, 2021):

Experiments:
[1] = system: complex II-driven mitochondrial respiration; assay: Respiratory control ratio, complex II-driven respiration in permeabilized cells; format: cell-based, human; settings: permeabilized A2780, 24 h treatment; control about 3.0
Method: (§1) The analysis of the oxygen consumption rate (OCR) was performed using a Clark-type O2 electrode inserted in a thermostated airtight chamber (Oxygraph Plus System, Hansatech Instruments, King’s Lynn, Norfolk, UK). Briefly, control and treated cells (12 and 24 h) were trypsinized, washed with PBS, and suspended in culture medium to measure the steady state OCR for 10 min. The OCR values, expressed as nmol of consumed O2/mL/min, were normalized to the cellular protein content. To evaluate the response of complex I, complex II/III, and ATP-synthase-driven OCRs in the presence or absence of gold-treatment, we used the protocol described by Baracca et al.. Cells were trypsinized, washed, and resuspended in buffer containing sucrose, TRIS-HCl, MgSO4, EDTA, and KH2PO4. Cell suspension was treated with digitonin to allow cell membrane permeabilization. To stimulate complex I, 250 mM glutamate/malate was added, whereas to stimulate complex II, 250 mM succinate was added (state 2 respiration). Then, to induce ATP-synthase-driven mitochondrial respiration, 10 mM ADP was added (state 3 respiration). To estimate the mitochondrial respiratory capacity, defined as the respiratory control ratio (RCR), state 3/state 2 ratios were calculated for control and treated cells.

A2780 cells = assay: Annexin V/propidium iodide flow cytometry (apoptosis); format: cell-based, human; settings: A2780, 72 h exposure at IC50 dose
Method: The evaluation of cell death was carried out using the TACS annexin V/propidium iodide staining kit (Trevigen, Gaithersburg, MD, USA) according to the manufacturer’s instructions. […] After 72 h, controls and treated cells were trypsinized, washed with PBS buffer, and suspended in the staining solution for 15 min at room temperature in the dark. Cells were then washed and immediately analyzed by FACSCantoII flow cytometer (BD Biosciences, New Jersey, USA). Cells were gated and plotted on dot plots showing the distribution of annexin V-positive cells (early apoptotic cells) and annexin V/propidium iodide-positive cells (late apoptotic cells).

[2] = system: mitochondrial respiration of A2780 cells; assay: Oxygen consumption rate (Clark-type O2 electrode); format: cell-based, human; settings: A2780, 24 h at 72 h IC50 dose, compared to controls
Method: as §1

[3] = system: PNT1 (human normal prostate epithelium) cells; assay: MTT antiproliferative assay on PNT1 cells; format: cell-based; settings: for IC50: 72 h of treatment, MTT assay, mean ± SD of three experiments, read-out: Half-maximal inhibitory concentration (IC50), PNT1; for IC50 for PNT1 higher than for A2780 (fold): ratio of 72 h IC50 PNT1 / A2780
Method: The inhibition of cell proliferation by Au2phen, Auoxo6, and AuL12 on A2780 cell line was evaluated through MTT (3-(4,5-dimethylthiazol-2-yl)-2,5-diphenyltetrazolium bromide) test. Viable cells can convert MTT into formazan, which is coloured and detectable at 595 nm. Exponentially growing cells were seeded in 96 well-microplates at a density of 8 × 10^3 for 24 h and then gold compounds were added in fresh RPMI medium at concentrations ranging from 0.003 to 100 µM and incubated for 72 h. On the day of the test, cells were treated with 0.5 mg/mL MTT for 1 h at 37 °C. Following precipitation, blue formazan was dissolved in DMSO, and the optical density was read in a microplate reader interfaced with Microplate Manager/PV version 4.0 software (BioRad Laboratories, Hercules, USA). From the absorbance measurements, the half-maximal inhibitory concentration (IC50) value of each compound on A2780 cells was calculated using GraphPad Prism software version 6.0 (Graphpad Holdings, LLC, USA). The same protocol was applied on non-tumor cell lines, i.e., HEK and PNT1 cells.

caspase-8 = assay: FAM-FLICA caspase-8 activation, flow cytometry; format: cell-based, human; settings: A2780, 72 h at 72 h IC50 dose, compared to controls
Method: (§2) In addition, caspase-3, caspase-8, and caspase-9 activation was assessed in treated and untreated cells. Likewise, cells were trypsinized, washed with PBS, and suspended in FAM-FLICATM caspase solution (FAM-DEVD-FMK caspase FLICA kit, ImmunoChemistry Technologies, MN 55431 USA) for 30 min at 37 °C. Cells were then washed twice with PBS and analyzed using a FACSCantoII flow cytometer (BD Biosciences, New Jersey, USA).

[4] = system: lactate production of A2780 cells; assay: Lactate production assay (K-LATE kit) in culture medium; format: cell-based, human; settings: A2780, 24 h treatment at 72 h IC50 dose, vs controls
Method: The lactate amount was measured in cell culture media after 24 h of treatment with K-LATE kit (Megazyme, Bray, Ireland) according to the data sheet provided by the manufacturer. Lactate content was normalized on the protein content of the same sample.

[5] = system: intracellular ROS in A2780 cells; assay: Intracellular ROS evaluation (H2DCF-DA, flow cytometry); format: cell-based, human; settings: A2780, 48 h treatment at 72 h IC50 dose, H2DCFDA
Method: Within the cell, H2DCF-DA is de-acetylated by cellular esterases to a non-fluorescent compound, which becomes fluorescent once it is oxidized by cellular ROS into 2′,7′-dichlorofluorescein (DCF). Cells were trypsinized, washed, and incubated with 5 µM H2DCFDA for 30 min in the dark. Then, cells were washed again and immediately analyzed using a FACSCantoII (BD Biosciences, New Jersey, USA) flow cytometer.

caspase-9 = assay: FAM-FLICA caspase-9 activation, flow cytometry; format: cell-based, human; settings: A2780, 72 h at 72 h IC50 dose, compared to controls
Method: as §2

Bax = assay: Western blot of Bax content; format: cell-based, human; settings: A2780, 48 h at 72 h IC50 dose, compared to controls
Method: After drug treatments, cells were lysed in RIPA buffer supplemented with a cocktail of protease and phosphatase inhibitors. […] To favor the electrophoretic separation, 25% sample loading buffer (SLB) was added to the cell lysates. Here, 20 µg samples of proteins from controls and treated cells were loaded on 4–20% pre-cast SDS-PAGE gels and blotted onto PVDF membranes. Primary antibodies Bcl-2 (1:1000 dilution,#sc-7382, Santa Cruz, Dallas, Texas USA), Bax (1:1000 dilution, #sc-493, Santa Cruz), OXPHOS cocktail (1:1000 dilution, #ab110413, AbCam, Cambridge, UK), citrate synthase (1:1000 dilution, #sc-515640, Santa Cruz), ASK1 (1:1000 dilution, #sc-390275, Santa Cruz), phospho(Thr838)-ASK1 (1:1000 dilution, #CPA6042, Cohesion Biosciences, London, UK), AKT (1:1000 dilution, #sc-5298, Santa Cruz), and phospho(Ser473)-AKT (1:1000 dilution, #GTX128414, GeneTex, Irvine, CA, USA) were added to 2% non-fat dry milk in PBS-tween solution, while PVDF membranes were incubated overnight at 4 °C. Then, membranes were treated with horseradish peroxidase (HRP)-conjugated secondary antibodies (1:5000 dilution, Santa Cruz) and immunoreactive bands were detected with an ECL kit detection system on an Amersham Imager 600 (GE Healthcare, Chicago, IL, USA). For the quantification, a densitometric analysis of the bands was performed using ImageJ2 software version 2.0.0-rc-64 [23]. The intensities of the immunostained bands were normalized on the Coomassie brilliant blue R-250-stained total protein from the same PVDF membrane.

Cc1ccc2ccc3ccc(C)[n+]4c3c2[n+]1[Au-]41[O][Au-]2([O]1)[n+]1c(C)ccc3ccc4ccc(C)[n+]2c4c31.F[P-](F)(F)(F)(F)F.F[P-](F)(F)(F)(F)F [Au2phen, ((2,9-dimethyl-1,10-phenanthroline)2Au2(µ-O)2)(PF6)2]
respiratory control ratio (RCR), complex II-driven [1]: about 1.7
increase of annexin V fluorescence intensity vs untreated control cells (A2780 cells): 6 fold
reduction of oxygen consumption rate (OCR) [2]: 26.8%
IC50 [3]: 11.8 ± 0.25 µM
IC50 for PNT1 higher than for A2780 (fold) [3]: about 14 fold
cells showing caspase-8 activation (caspase-8): around 50%
increase of lactate level in medium [4]: about 20%
ROS increase vs control cells [5]: about 3.7 fold
cells showing caspase-9 activation (caspase-9): 60%
increase of proapoptotic Bax protein (Bax): about 29%

CCOC(=O)CN(C)C1=[S+][Au-]([Br])([Br])[S]1 [AuL12, dibromo(ethylsarcosinedithiocarbamate)gold(III), reference compound]
respiratory control ratio (RCR), complex II-driven [1]: about 2.4
increase of annexin V fluorescence intensity vs untreated control cells (A2780 cells): 5 fold
reduction of oxygen consumption rate (OCR) [2]: 18%
IC50 [3]: 12.3 ± 0.17 µM
IC50 for PNT1 higher than for A2780 (fold) [3]: 3 fold
cells showing caspase-8 activation (caspase-8): ~ 30%
increase of lactate level in medium [4]: ~29%
ROS increase vs control cells [5]: about 2.8 fold
cells showing caspase-9 activation (caspase-9): ~ 30%
increase of proapoptotic Bax protein (Bax): ~34%

Cc1cccc2[n+]1[Au-]1([O][Au-]3([O]1)[n+]1c(C)cccc1-c1cccc(C)[n+]13)[n+]1c(C)cccc1-2.F[P-](F)(F)(F)(F)F.F[P-](F)(F)(F)(F)F [Auoxo6, ((6,6′-dimethyl-2,2′-bipyridine)2Au2(µ-O)2)(PF6)2]
respiratory control ratio (RCR), complex II-driven [1]: about 1.8
increase of annexin V fluorescence intensity vs untreated control cells (A2780 cells): 10 fold
reduction of oxygen consumption rate (OCR) [2]: 24.7%
IC50 [3]: 18.4 ± 0.3 µM
IC50 for PNT1 higher than for A2780 (fold) [3]: ~16 fold
cells showing caspase-8 activation (caspase-8): ~70%
increase of lactate level in medium [4]: ~25%
ROS increase vs control cells [5]: about 2.8 fold
cells showing caspase-9 activation (caspase-9): 75%
increase of proapoptotic Bax protein (Bax): ~20%
